We go through three molecules from ChEMBL document CHEMBL4387773, “Identification of potent, selective and orally bioavailable phenyl ((R)-3-phenylpyrrolidin-3-yl)sulfone analogues as RORγt inverse agonists” (Bioorg Med Chem Lett, 2019).

For orientation: EC50 means the midpoint of the concentration-response curve.

Each structure is given as a SMILES string.

The first data set addresses T1, Oxysterols receptor LXR-alpha (Homo sapiens, UniProt Q13133).
T1 sequence (Q13133 whole entry): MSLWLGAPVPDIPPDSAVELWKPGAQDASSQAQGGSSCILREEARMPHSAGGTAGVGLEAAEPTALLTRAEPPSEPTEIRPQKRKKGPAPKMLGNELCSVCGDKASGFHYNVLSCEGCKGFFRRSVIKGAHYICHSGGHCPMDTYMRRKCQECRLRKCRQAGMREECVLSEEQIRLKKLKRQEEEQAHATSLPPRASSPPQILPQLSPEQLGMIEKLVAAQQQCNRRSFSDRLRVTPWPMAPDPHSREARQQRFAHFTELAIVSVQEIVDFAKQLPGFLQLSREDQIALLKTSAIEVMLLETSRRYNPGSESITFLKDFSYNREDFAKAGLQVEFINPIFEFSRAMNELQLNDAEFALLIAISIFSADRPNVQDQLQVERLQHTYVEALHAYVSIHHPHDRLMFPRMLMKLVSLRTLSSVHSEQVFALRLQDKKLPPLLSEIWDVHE
In words: Transactivation of human GAL4-fused LXRalpha expressed in African green monkey CV1 cells. It counts as cell-based.
Conditions: not given
For the molecule `O=C(C1CCS(=O)(=O)C1)N1CC[C@](c2ccc(C(F)(C(F)(F)F)C(F)(F)F)cc2)(S(=O)(=O)c2ccc(F)cc2)C1` (stereo in doubt; 32), the 50% effective concentration (EC50) is above 7.5 µM.

In turn, `CC1(C(=O)N2CC[C@](c3ccc(C(F)(C(F)(F)F)C(F)(F)F)cc3)(S(=O)(=O)c3ccc(F)cc3)C2)CCS(=O)(=O)CC1` had an EC50 above 7.5 µM.

Regarding `O=C(O)[C@H]1CC[C@](F)(C(=O)N2CC[C@](c3ccc(C(F)(C(F)(F)F)C(F)(F)F)cc3)(S(=O)(=O)c3ccc(F)cc3)C2)CC1`, the EC50 is above 7.5 µM.

The target of the next data set is T2, Nuclear receptor ROR-beta (Homo sapiens, UniProt Q92753).
T2 sequence (Q92753 whole entry): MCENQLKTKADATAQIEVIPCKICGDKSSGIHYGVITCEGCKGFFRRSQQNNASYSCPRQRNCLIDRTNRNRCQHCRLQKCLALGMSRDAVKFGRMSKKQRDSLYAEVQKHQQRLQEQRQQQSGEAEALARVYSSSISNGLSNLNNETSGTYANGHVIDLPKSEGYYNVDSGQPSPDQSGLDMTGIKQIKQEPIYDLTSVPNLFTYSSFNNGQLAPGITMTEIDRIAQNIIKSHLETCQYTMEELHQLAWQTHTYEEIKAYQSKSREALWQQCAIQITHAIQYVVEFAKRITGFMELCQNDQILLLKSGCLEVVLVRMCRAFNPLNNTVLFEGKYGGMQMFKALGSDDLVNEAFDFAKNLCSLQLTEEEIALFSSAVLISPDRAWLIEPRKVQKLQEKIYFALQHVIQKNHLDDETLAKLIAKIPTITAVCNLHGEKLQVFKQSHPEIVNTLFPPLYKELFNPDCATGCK
In words: Inverse agonist activity at human Gal4-fused RORbeta LBD (200 to 559 residues) expressed in human Jurkat cells measured after 18 hrs by steady-glo luciferase reporter gene assay. It counts as cell-based.
Conditions: not given
Background: In a reporter assay the amount or activity of a reporter protein is the signal.
Molecule `O=C(C1CCS(=O)(=O)C1)N1CC[C@](c2ccc(C(F)(C(F)(F)F)C(F)(F)F)cc2)(S(=O)(=O)c2ccc(F)cc2)C1` (stereo in doubt; 32) returned an EC50 above 40 µM.

`CC1(C(=O)N2CC[C@](c3ccc(C(F)(C(F)(F)F)C(F)(F)F)cc3)(S(=O)(=O)c3ccc(F)cc3)C2)CCS(=O)(=O)CC1` returned an EC50 above 40 µM.

`O=C(O)[C@H]1CC[C@](F)(C(=O)N2CC[C@](c3ccc(C(F)(C(F)(F)F)C(F)(F)F)cc3)(S(=O)(=O)c3ccc(F)cc3)C2)CC1`: the EC50 is above 40 µM.

System in a further data set: not listed separately
The experiment in a line: Stability in mouse liver microsomes assessed as parent compound remaining after 10 mins. It counts as ADME, Microsome. Conditions: liver microsomes, read-out: Stability. A general note: Microsomes from liver hold many membrane-bound enzymes, among them those of drug oxidation.
Regarding `O=C(C1CCS(=O)(=O)C1)N1CC[C@](c2ccc(C(F)(C(F)(F)F)C(F)(F)F)cc2)(S(=O)(=O)c2ccc(F)cc2)C1` (stereo in doubt; 32), the remaining at 10 min worked out at 78%.

The target in another data set is T3, PXR (Homo sapiens, UniProt O75469).
T3 sequence (O75469 whole entry): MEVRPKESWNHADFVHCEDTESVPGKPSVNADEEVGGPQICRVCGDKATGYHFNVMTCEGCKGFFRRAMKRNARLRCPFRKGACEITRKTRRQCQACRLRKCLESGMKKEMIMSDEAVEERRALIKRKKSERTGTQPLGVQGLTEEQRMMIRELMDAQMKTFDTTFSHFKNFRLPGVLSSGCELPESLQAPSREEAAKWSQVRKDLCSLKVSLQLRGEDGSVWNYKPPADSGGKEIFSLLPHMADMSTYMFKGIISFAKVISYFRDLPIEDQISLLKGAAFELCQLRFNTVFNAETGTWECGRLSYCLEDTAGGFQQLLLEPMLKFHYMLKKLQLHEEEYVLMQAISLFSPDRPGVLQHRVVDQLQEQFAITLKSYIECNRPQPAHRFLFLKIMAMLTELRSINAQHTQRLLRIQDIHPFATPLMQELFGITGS
The experiment in a line: Transactivation of PXR (unknown origin) expressed in human HepG2 cells assessed as maximum receptor activation response relative to control. It counts as cell-based. Conditions: human HepG2 cells that express PXR, read-out: %max.
As to `O=C(C1CCS(=O)(=O)C1)N1CC[C@](c2ccc(C(F)(C(F)(F)F)C(F)(F)F)cc2)(S(=O)(=O)c2ccc(F)cc2)C1` (stereo in doubt; 32), the Emax was 49%.

Take `CC1(C(=O)N2CC[C@](c3ccc(C(F)(C(F)(F)F)C(F)(F)F)cc3)(S(=O)(=O)c3ccc(F)cc3)C2)CCS(=O)(=O)CC1`: the Emax came to 10%.

As for `O=C(O)[C@H]1CC[C@](F)(C(=O)N2CC[C@](c3ccc(C(F)(C(F)(F)F)C(F)(F)F)cc3)(S(=O)(=O)c3ccc(F)cc3)C2)CC1`, the Emax amounted to 31%.

System in a further data set: not listed separately
The experiment in a line: Stability in human liver microsomes assessed as parent compound remaining after 10 mins. It counts as ADME, Microsome. Conditions: liver microsomes, read-out: Stability.
`O=C(C1CCS(=O)(=O)C1)N1CC[C@](c2ccc(C(F)(C(F)(F)F)C(F)(F)F)cc2)(S(=O)(=O)c2ccc(F)cc2)C1` (stereo in doubt; 32): the remaining at 10 min came to 100%.

For a further data set, the target named is T4, Oxysterols receptor LXR-beta (Homo sapiens, UniProt P55055).
T4 sequence (P55055 whole entry): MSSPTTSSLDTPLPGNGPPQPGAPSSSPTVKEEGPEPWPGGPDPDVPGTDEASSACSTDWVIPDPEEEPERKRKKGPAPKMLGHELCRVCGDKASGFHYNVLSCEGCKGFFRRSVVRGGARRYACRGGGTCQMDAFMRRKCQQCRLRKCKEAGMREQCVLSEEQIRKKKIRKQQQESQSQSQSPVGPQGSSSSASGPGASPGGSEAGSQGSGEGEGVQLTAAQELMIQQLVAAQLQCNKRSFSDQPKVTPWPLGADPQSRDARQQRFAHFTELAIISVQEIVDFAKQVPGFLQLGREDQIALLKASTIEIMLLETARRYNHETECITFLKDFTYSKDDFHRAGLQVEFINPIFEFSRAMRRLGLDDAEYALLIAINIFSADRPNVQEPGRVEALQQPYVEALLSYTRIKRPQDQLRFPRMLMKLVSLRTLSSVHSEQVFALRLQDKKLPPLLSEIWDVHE
The experiment in a line: Transactivation of human GAL4-fused LXRbeta expressed in African green monkey CV1 cells. It counts as cell-based.
Conditions: not given
The molecule `O=C(C1CCS(=O)(=O)C1)N1CC[C@](c2ccc(C(F)(C(F)(F)F)C(F)(F)F)cc2)(S(=O)(=O)c2ccc(F)cc2)C1` (stereo in doubt; 32) yielded a concentration giving a half-maximal response (EC50) above 7.5 µM.

In turn, `CC1(C(=O)N2CC[C@](c3ccc(C(F)(C(F)(F)F)C(F)(F)F)cc3)(S(=O)(=O)c3ccc(F)cc3)C2)CCS(=O)(=O)CC1` returned a concentration giving a half-maximal response (EC50) above 7.5 µM.

`O=C(O)[C@H]1CC[C@](F)(C(=O)N2CC[C@](c3ccc(C(F)(C(F)(F)F)C(F)(F)F)cc3)(S(=O)(=O)c3ccc(F)cc3)C2)CC1`: the EC50 is above 7.5 µM.

The next data set addresses T5, Nuclear receptor subfamily 1 group I member 2 (Homo sapiens, UniProt O75469).
T5 sequence (O75469 whole entry): T3 sequence (O75469 whole entry)
In words: Transactivation of PXR (unknown origin) expressed in human HepG2 cells. It counts as cell-based.
Conditions: not given
Consider `O=C(C1CCS(=O)(=O)C1)N1CC[C@](c2ccc(C(F)(C(F)(F)F)C(F)(F)F)cc2)(S(=O)(=O)c2ccc(F)cc2)C1` (stereo in doubt; 32), for which the EC50 is above 13 µM.

On to `CC1(C(=O)N2CC[C@](c3ccc(C(F)(C(F)(F)F)C(F)(F)F)cc3)(S(=O)(=O)c3ccc(F)cc3)C2)CCS(=O)(=O)CC1`, for which the EC50 was above 50 µM.

For the molecule `O=C(O)[C@H]1CC[C@](F)(C(=O)N2CC[C@](c3ccc(C(F)(C(F)(F)F)C(F)(F)F)cc3)(S(=O)(=O)c3ccc(F)cc3)C2)CC1`, a half-maximal effect (EC50) was put at 10.6 µM.

The next data set concerns the target T6, Nuclear receptor ROR-alpha (Homo sapiens, UniProt P35398).
T6 sequence (P35398 whole entry): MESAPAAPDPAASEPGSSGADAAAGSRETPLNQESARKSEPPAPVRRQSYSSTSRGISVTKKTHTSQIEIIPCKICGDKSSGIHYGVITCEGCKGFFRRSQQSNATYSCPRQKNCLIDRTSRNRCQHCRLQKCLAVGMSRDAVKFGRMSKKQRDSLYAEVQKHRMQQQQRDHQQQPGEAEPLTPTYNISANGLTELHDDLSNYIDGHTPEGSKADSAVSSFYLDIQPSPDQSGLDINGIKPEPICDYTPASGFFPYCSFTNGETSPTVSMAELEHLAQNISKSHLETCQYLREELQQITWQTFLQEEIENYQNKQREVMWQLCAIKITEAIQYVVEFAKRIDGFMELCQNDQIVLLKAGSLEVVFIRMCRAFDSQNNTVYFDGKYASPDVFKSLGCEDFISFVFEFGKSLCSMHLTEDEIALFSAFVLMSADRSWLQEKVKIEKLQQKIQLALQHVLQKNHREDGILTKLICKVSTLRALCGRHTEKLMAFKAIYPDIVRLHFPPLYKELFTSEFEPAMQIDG
The experiment in a line: Inverse agonist activity at human Gal4-fused RORalpha LBD (272 to 556 residues) expressed in human Jurkat cells measured after 18 hrs by steady-glo luciferase reporter gene assay. It counts as cell-based.
Conditions: not given
Take `O=C(C1CCS(=O)(=O)C1)N1CC[C@](c2ccc(C(F)(C(F)(F)F)C(F)(F)F)cc2)(S(=O)(=O)c2ccc(F)cc2)C1` (stereo in doubt; 32): the EC50 is above 40 µM.

For `CC1(C(=O)N2CC[C@](c3ccc(C(F)(C(F)(F)F)C(F)(F)F)cc3)(S(=O)(=O)c3ccc(F)cc3)C2)CCS(=O)(=O)CC1`, the EC50 was above 40 µM.

The molecule `O=C(O)[C@H]1CC[C@](F)(C(=O)N2CC[C@](c3ccc(C(F)(C(F)(F)F)C(F)(F)F)cc3)(S(=O)(=O)c3ccc(F)cc3)C2)CC1` registered an EC50 above 40 µM.
